The target in this assay is Flpin-293-PDE4B2 cells (Homo sapiens, UniProt Q07343). As to the kind of experiment: cell-based. The following applies: for inhibition at 0.001 µM: read-out: Cell Inhibition % @1 nM, 1 nM, Flpin-293-PDE4B2 cells; for inhibition at 0.01 µM: read-out: Cell Inhibition % @10 nM, 10 nM, Flpin-293-PDE4B2 cells; for inhibition at 0.1 µM: read-out: Cell Inhibition % @100 nM, 100 nM, Flpin-293-PDE4B2 cells.
Chain of Flpin-293-PDE4B2 cells (Q07343 1-564 isoform Q07343-2): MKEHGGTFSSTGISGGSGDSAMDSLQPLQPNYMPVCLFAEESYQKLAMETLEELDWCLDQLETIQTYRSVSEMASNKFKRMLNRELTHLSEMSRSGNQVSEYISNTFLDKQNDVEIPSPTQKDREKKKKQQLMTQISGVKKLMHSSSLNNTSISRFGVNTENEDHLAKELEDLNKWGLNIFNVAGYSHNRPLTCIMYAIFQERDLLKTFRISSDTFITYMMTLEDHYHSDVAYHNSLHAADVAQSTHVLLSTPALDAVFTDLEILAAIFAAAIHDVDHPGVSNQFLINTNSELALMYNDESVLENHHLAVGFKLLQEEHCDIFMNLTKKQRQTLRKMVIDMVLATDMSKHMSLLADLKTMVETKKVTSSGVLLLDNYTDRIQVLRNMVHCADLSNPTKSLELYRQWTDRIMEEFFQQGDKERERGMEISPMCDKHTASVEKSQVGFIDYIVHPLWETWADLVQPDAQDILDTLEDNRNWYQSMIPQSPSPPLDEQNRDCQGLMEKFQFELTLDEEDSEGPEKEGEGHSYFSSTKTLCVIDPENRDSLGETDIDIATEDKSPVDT

One may read the inhibition as the change of the read-out against control, counted positive when it falls. With `[O-][S+]1CCc2nc(N3CCc4c(ncc5cc(Cl)ccc45)C3)nc(NC3(CO)CCC3)c21` (stereo not drawn) [Compound 100], the inhibition at 0.001 µM was 6%, the inhibition at 0.01 µM came out at 47.7% and the inhibition at 0.1 µM is 97.3%.
Taken in the same sequence, the figures for `Nc1nc2cc(Cl)ccc2c2c1CN(c1nc3c(c(NC4(CO)CCC4)n1)[S+]([O-])CC3)CC2` (stereo not drawn) [Compound 102] were -0.08%, 35.9% and 95.5%.
Regarding `[O-][S+]1CCc2nc(N3CCc4c(c(NCCO)nc5cc(Cl)ccc45)C3)nc(NC3(CO)CCC3)c21` (stereo not drawn) [Compound 103], the inhibition at 0.001 µM worked out at 2.83%, the inhibition at 0.01 µM came to 38.9% and the inhibition at 0.1 µM amounted to 95.4%.
Taken in the same sequence, the figures for `Cn1nc(Cl)c2c3c(cnc21)CN(c1nc2c(c(NC4(CO)CCC4)n1)[S+]([O-])CC2)CC3` (stereo not drawn) [Compound 105] were 7.53%, 42.5% and 93.5%.
Taken in the same sequence, the figures for `[O-][n+]1cc2c(c3ccc(Cl)cc31)CCN(c1nc3c(c(NC4(CO)CCC4)n1)[S+]([O-])CC3)C2` (stereo not drawn) [Compound 106] were 0.41%, 21.2% and 67.5%.
Taken in the same sequence, the figures for `[O-][S+]1CCc2nc(N3CC[C@@H]4c5cccc(Cl)c5OC[C@H]4C3)nc(NC3(CO)CCC3)c21` (stereo partly drawn) [Compound 107] were 2.82%, 52.5% and 98.1%.
Consider `[O-][S+]1CCc2nc(N3CC[C@@H]4c5cc(Cl)ccc5OC[C@H]4C3)nc(NC3(CO)CCC3)c21` (stereo partly drawn) [Compound 108], for which the inhibition at 0.001 µM is -0.82%, the inhibition at 0.01 µM was determined as 37.4% and the inhibition at 0.1 µM was found to be 95.1%.
`[O-][S+]1CCc2nc(N3CC[C@@H]4c5ccc(F)cc5OC[C@H]4C3)nc(NC3(CO)CCC3)c21` (stereo partly drawn) [Compound 109]: the inhibition at 0.001 µM worked out at 17.7%, the inhibition at 0.01 µM came to 65.4% and the inhibition at 0.1 µM is 97.8%.
Taken in the same sequence, the figures for `COc1ccc2c(c1)OC[C@H]1CN(c3nc4c(c(NC5(CO)CCC5)n3)[S+]([O-])CC4)CC[C@H]21` (stereo partly drawn) [Compound 110] were 19%, 76.1% and 100%.
For the compound `[O-][S+]1CCc2nc(N3CC[C@@H]4c5ccc(C(F)(F)F)cc5OC[C@H]4C3)nc(NC3(CO)CCC3)c21` (stereo partly drawn) [Compound 111], the inhibition at 0.001 µM came to 8.07%, the inhibition at 0.01 µM turned out to be 22.2% and the inhibition at 0.1 µM was found to be 81.1%.
Taken in the same sequence, the figures for `Cc1ccc2c(c1)OC[C@H]1CN(c3nc4c(c(NC5(CO)CCC5)n3)[S+]([O-])CC4)CC[C@H]21` (stereo partly drawn) [Compound 112] were 12.3%, 54.1% and 99.4%.
Taken in the same sequence, the figures for `[O-][S+]1CCc2nc(N3CC[C@@H]4c5ccc(Br)cc5OC[C@H]4C3)nc(NC3(CO)CCC3)c21` (stereo partly drawn) [Compound 115] were 7.72%, 39.7% and 97.7%.
Taken in the same sequence, the figures for `[O-][S+]1CCc2nc(N3CC[C@H]4c5ccc(Cl)cc5OC[C@H]4C3)nc(NC3(CO)CCC3)c21` (stereo partly drawn) [Compound 116] were 2.17%, 16.9% and 73.4%.
`[O-][S+]1CCc2nc(N3CC[C@H]4c5cnc(Cl)cc5OC[C@@H]4C3)nc(NC3(CO)CCC3)c21` (stereo partly drawn) [Compound 117]: the inhibition at 0.001 µM turned out to be 5.32%, the inhibition at 0.01 µM was found to be 17.3% and the inhibition at 0.1 µM worked out at 61.6%.
Taken in the same sequence, the figures for `C[C@H]1c2ccc(Br)cc2CCN1c1nc2c(c(NC3(CO)CCC3)n1)[S+]([O-])CC2` (stereo partly drawn) [Compound 123] were 3.3%, 29.6% and 86.8%.
Regarding `O=C(O)Cc1ccc(Nc2nc(N3CCc4cc(Cl)ccc4C3)nc3c2[S@@+]([O-])CC3)cc1` [Compound 128], the inhibition at 0.001 µM is -0.97%, the inhibition at 0.01 µM was 6.68% and the inhibition at 0.1 µM was found to be 25.4%.
Taken in the same sequence, the figures for `O=C(O)Cc1ccc(Nc2nc(N3CCc4cc(Cl)ccc4C3)nc3c2[S@+]([O-])CC3)cc1` [Compound 129] were 6.93%, 39.6% and 72.2%.
Taken in the same sequence, the figures for `NC(=O)Nc1ccc(Nc2nc(N3CCc4cc(Cl)ccc4C3)nc3c2[S+]([O-])CC3)cc1` (stereo not drawn) [Compound 137] were 4.94%, 21.8% and 83.8%.
As for `N#CCc1ccc(Nc2nc(N3CCc4cc(Cl)ccc4C3)nc3c2[S+]([O-])CC3)cc1` (stereo not drawn) [Compound 138], the inhibition at 0.001 µM was determined as 4.95%, the inhibition at 0.01 µM is 27.9% and the inhibition at 0.1 µM was determined as 89.6%.
For the compound `[O-][S+]1CCc2nc(N3CCc4cc(Cl)ccc4C3)nc(Nc3ccc(CCO)cc3)c21` (stereo not drawn) [Compound 139], the inhibition at 0.001 µM is 16.2%, the inhibition at 0.01 µM came out at 78.6% and the inhibition at 0.1 µM worked out at 102%.
Consider `Cn1cc(Nc2nc(N3CCc4cc(Cl)ccc4C3)nc3c2[S+]([O-])CC3)cn1` (stereo not drawn) [Compound 141], for which the inhibition at 0.001 µM came to 11.4%, the inhibition at 0.01 µM stood at 49.2% and the inhibition at 0.1 µM stood at 96%.
On to `COC[C@H]1CCCN1c1ccc2c(c1)CCN(c1nc3c(c(NC4(CO)CCC4)n1)[S+]([O-])CC3)C2` (stereo partly drawn) [Compound 146], for which the inhibition at 0.001 µM is 14.8%, the inhibition at 0.01 µM was determined as 85.1% and the inhibition at 0.1 µM was determined as 101%.
For `COC[C@@H]1CCCN1c1ccc2c(c1)CCN(c1nc3c(c(NC4(CO)CCC4)n1)[S+]([O-])CC3)C2` (stereo partly drawn) [Compound 147], the inhibition at 0.001 µM is 8.67%, the inhibition at 0.01 µM turned out to be 32.2% and the inhibition at 0.1 µM came to 94.4%.
As to `[O-][S+]1CCc2nc(N3CCc4cc(N5CC6(COC6)C5)ccc4C3)nc(NC3(CO)CCC3)c21` (stereo not drawn) [Compound 164], the inhibition at 0.001 µM came to 6.23%, the inhibition at 0.01 µM worked out at 20% and the inhibition at 0.1 µM is 61.1%.
On to `[O-][S+]1CCc2nc(N3CCc4cc(N5CCC(CO)C5)ccc4C3)nc(NC3(CO)CCC3)c21` (stereo not drawn) [Compound 171], for which the inhibition at 0.001 µM was 4.06%, the inhibition at 0.01 µM came out at 36.5% and the inhibition at 0.1 µM stood at 94.3%.
Taken in the same sequence, the figures for `[O-][S+]1CCc2nc(N3CCc4cc(N5CC[C@H](O)C5)ccc4C3)nc(NC3(CO)CCC3)c21` (stereo partly drawn) [Compound 172] were 3.77%, 46% and 96.6%.
Taken in the same sequence, the figures for `[O-][S+]1CCc2nc(N3CCc4cc(N5C[C@H]6COC[C@H]6C5)ccc4C3)nc(NC3(CO)CCC3)c21` (stereo partly drawn) [Compound 178] were 8.53%, 68% and 98.9%.
Consider `[O-][S+]1CCc2nc(N3CCc4cc(N5CCCC5)cc(F)c4C3)nc(NC3(CO)CCC3)c21` (stereo not drawn) [Compound 182], for which the inhibition at 0.001 µM turned out to be 3.68%, the inhibition at 0.01 µM stood at 40.6% and the inhibition at 0.1 µM was 98%.
For the compound `COC[C@@H](CO)Nc1nc(N2CCc3cc(N4CCCC4)ccc3C2)nc2c1[S+]([O-])CC2` (stereo partly drawn) [Compound 199], the inhibition at 0.001 µM was -0.51%, the inhibition at 0.01 µM is 8.04% and the inhibition at 0.1 µM was determined as 61.6%.
Taken in the same sequence, the figures for `C[C@H]1c2ccc(N3CCCC3)cc2CCN1c1nc2c(c(N[C@H]3CCC(=O)N(C)C3)n1)[S+]([O-])CC2` (stereo partly drawn) [Compound 202] were 52.5%, 99.4% and 101%.
Taken in the same sequence, the figures for `C[C@H]1c2ccc(N3CCCC3)cc2CCN1c1nc2c(c(NC3(CO)CC3)n1)[S+]([O-])CC2` (stereo partly drawn) [Compound 203] were 14.8%, 84.1% and 99.9%.
As for `C[C@H]1c2ccc(N3CCCC3)cc2CCN1c1nc2c(c(NC3CS(=O)(=O)C3)n1)[S+]([O-])CC2` (stereo partly drawn) [Compound 204], the inhibition at 0.001 µM is 23.1%, the inhibition at 0.01 µM amounted to 87.2% and the inhibition at 0.1 µM was determined as 100%.
Taken in the same sequence, the figures for `C[C@H]1c2ccc(N3CCCC3)cc2CCN1c1nc2c(c(NC3CCOCC3)n1)[S+]([O-])CC2` (stereo partly drawn) [Compound 205] were 28.5%, 92.4% and 101%.
`C[C@H]1c2ccc(N3CCCC3)cc2CCN1c1nc2c(c(NCc3cnn(C)c3)n1)[S+]([O-])CC2` (stereo partly drawn) [Compound 206]: the inhibition at 0.001 µM is 26.9%, the inhibition at 0.01 µM was 89.7% and the inhibition at 0.1 µM is 100%.
For `C[C@H]1c2ccc(N3CCCC3)cc2CCN1c1nc2c(c(Nc3cnn(C)c3)n1)[S+]([O-])CC2` (stereo partly drawn) [Compound 207], the inhibition at 0.001 µM came to 30.8%, the inhibition at 0.01 µM worked out at 94.4% and the inhibition at 0.1 µM worked out at 100%.
Consider `C[C@H]1c2ccc(N3CCCC3)cc2CCN1c1nc2c(c(Nc3cnn(C4CN(C)C4)c3)n1)[S+]([O-])CC2` (stereo partly drawn) [Compound 209], for which the inhibition at 0.001 µM was found to be 4.48%, the inhibition at 0.01 µM amounted to 9.75% and the inhibition at 0.1 µM worked out at 61.7%.
Taken in the same sequence, the figures for `C[C@H]1c2ccc(N3CCCC3)cc2CCN1c1nc2c(c(NC3(CO)CCOC3)n1)[S+]([O-])CC2` (stereo partly drawn) [Compound 211] were 12.5%, 50.1% and 98.4%.
`C[C@H]1c2ccc(N3CCCC3)cc2CCN1c1nc2c(c(Nc3nnn(C)n3)n1)[S+]([O-])CC2` (stereo partly drawn) [Compound 213]: the inhibition at 0.001 µM came out at 9.25%, the inhibition at 0.01 µM is 29.6% and the inhibition at 0.1 µM came to 89%.
Taken in the same sequence, the figures for `C[C@H]1c2ccc(N3CCCC3)cc2CCN1c1nc2c(c(Nc3cn(C)nn3)n1)[S+]([O-])CC2` (stereo partly drawn) [Compound 214] were 1.8%, 15.1% and 64.1%.

For the origin of these results see patent US20260285880A1, “SUBSTITUTED DIHYDROTHIENOPYRIMIDINE COMPOUND, PREPARATION METHOD THEREFOR, AND USE THEREOF” (SHANGHAI YIDI BIOTECHNOLOGY CO., LTD., priority 2023, published 2026).
